Measurements published in patent publication US9227971B2, “Pyrazolo[1,5-a]pyrimidine compounds as mTOR inhibitors” (Merck Sharp & Dohme Corp., priority 2010, dated 2016).

Experiments:
[1] = system: phosphorylated 4E-BP1 Thr37/46 (p4E-BP1 Thr37/46), mTORC1 activity, PC3 cells; test: mTOR target engagement assay, immunofluorescent cell-based, p4E-BP1 Thr37/46 readout (mTORC1 activity); conditions: Homo sapiens, PC-3, PC3 cells, compound treatment ninety minutes at 37° C.; read-out: p4E-BP1 Thr37/46 IC50
Experimental: (§1) The target engagement of mTOR kinase inhibitors was evaluated using an immunofluorescent cell-based assay. In this assay, inhibition of mTORC1 activity was measured by the reduction in the level of phosphorylated 4E-BP1^[…] (p4E-BP1 Thr37/46), and inhibition of mTORC2 activity was measured by the reduction of phosphorylated AKT^Ser473 (pAKT S473).
(§2) PC3 cells (prostate tumor cell-line that contains a mutation in the tumor suppressor PTEN, that promotes the phosphorylation and activation of AKT and 4E-BP1) were used in the immunofluorescence assay. PC3 cells were seeded on 384 well plates (black clear bottom, Matrix #4332) overnight. PC3 cells were then treated with 40 μl of the serially diluted test compounds (in 5% fetal bovine serum, F12 medium containing 0.25% DMSO) for ninety minutes at 37° C. The test compound solution was removed, and the plates were washed gently two times with 25 μl phosphate buffered saline (PBS). The cells were fixed by adding 25 μl of Prefer reagent (from Anatech LTD, Cat#414, a glyoxal fixative for fixing proteins within a cell) for sixty minutes followed by three washes with PBS. 5% Goat serum in PBS/0.3% Triton was used to block non-specific binding (60 minutes).
The primary antibodies targeting pAKT S473 and p4E-BP1 Thr37/46 were diluted into PBS/0.3% Triton and incubated with the cells overnight at 4° C. The antibodies targeting pAKTS473 (Cat#4085, Cell signaling) and p4E-BP1 Thr37/46 (Cat#2855, Cell signaling) were used at a 1:100 dilution. Plates were washed three times with PBS/0.1% Tween 20 before adding the secondary antibody at a 1:200 dilution. (goat anti-rabbit containing a fluorescent label, Alexa Fluor 488, Cat#A11008, Invitrogen) in PBS/0.3% Triton for 60 minutes.
Finally, the plates were washed three times with PBS/0.1% Tween 20 and the fluorescent intensity was read using an Analyst HT from Molecular Devices. The fluorescent intensity values from the serially diluted compound treatment group were analyzed using the Xlfit 4 program ([…]) (Formula 205: Y=Bottom+(Top-Bottom)/(1+(IC50/X)^Hillslope) to generate the IC50 value. Where Top is the maximum signal without Compound (+DMSO only) and Bottom represents maximum inhibition. Y is the fluorescence at some compound concentration. The control used to determine the fluorescent intensities for 100% pAKT S473 or 100% phosphorylated p4E-BP1 Thr37/46 were measured from untreated wells that contained only DMSO, instead of test compound.

[2] = system: phosphorylated AKT Ser473 (pAKT S473), mTORC2 activity, PC3 cells; test: mTOR target engagement assay, immunofluorescent cell-based, pAKT S473 readout (mTORC2 activity); conditions: Homo sapiens, PC-3, PC3 cells, compound treatment ninety minutes at 37° C.
Experimental: as §1
as §2, with “PC3 cells were seeded on 384 well plates (black clear bottom, Matrix #4332) overnight.” left out, “The cells were fixed by adding 25 μl of Prefer reagent (from Anatech LTD, Cat#414, a glyoxal fixative for fixing proteins within a cell) for sixty minutes followed by three washes with PBS.” left out
The primary antibodies targeting pAKT S473 and p4E-BP1 Thr37/46 were diluted into PBS/0.3% Triton and incubated with the cells overnight at 4° C. […] Plates were washed three times with PBS/0.1% Tween 20 before adding the secondary antibody at a 1:200 dilution.
Finally, the plates were washed three times with PBS/0.1% Tween 20 and the fluorescent intensity was read using an Analyst HT from Molecular Devices.

| Compound | IC50 [1] [nM] | IC50 [2] [nM] |
| --- | --- | --- |
| CC(=O)c1c([C@@H]2C[C@H]3CC[C@@H](C2)N3C(=O)C(C)(CO)CO)nc2c(-c3ccc(-c4ccccc4)nc3)cnn2c1N [Compound 1.1.1, 1-((1R,3s,5S)-3-(6-acetyl-7-amino-3-(6-phenylpyridin-3-yl)pyrazolo[1,5-a]pyrimidin-5-yl)-8-azabicyclo[3.2.1]octan-8-yl)-3-hydroxy-2-(hydroxymethyl)-2-methylpropan-1-one] | 100 to 1000 | 100 to 1000 |
| CC(=O)c1c([C@@H]2C[C@H]3CC[C@@H](C2)N3C(=O)[C@@H](C)O)nc2c(-c3ccc(-c4ccccc4)nc3)cnn2c1N [Compound 1.1.2] | 100 to 1000 | 1 to 100 |
| CC(=O)c1c([C@@H]2C[C@H]3CC[C@@H](C2)N3C(=O)CO)nc2c(-c3ccc(-c4ccccc4)nc3)cnn2c1N [Compound 1.1.5, 1-((1R,3s,5S)-3-(6-acetyl-7-amino-3-(6-phenylpyridin-3-yl)pyrazolo[1,5-a]pyrimidin-5-yl)-8-azabicyclo[3.2.1]octan-8-yl)-2-hydroxyethanone] | 1 to 100 | 1 to 100 |
| CC(=O)c1c(C2CC3CCC(C2)N3C(=O)c2nnc[nH]2)nc2c(-c3ccc(-c4ccccc4)nc3)cnn2c1N [Compound 1.1.7, 1-(5-((1R,3s,5S)-8-(1H-1,2,4-triazole-3-carbonyl)-8-azabicyclo[3.2.1]octan-3-yl)-7-amino-3-(6-phenylpyridin-3-yl)pyrazolo[1,5-a]pyrimidin-6-yl)ethanone] | 1 to 100 | 1 to 100 |
| CC(=O)c1c([C@@H]2C[C@H]3CC[C@@H](C2)N3C(=O)[C@H](C)O)nc2c(-c3ccc(-c4ccccc4)nc3)cnn2c1N [Compound 1.1.8, (S)-1-((1R,3R,5S)-3-(6-acetyl-7-amino-3-(6-phenylpyridin-3-yl)pyrazolo[1,5-a]pyrimidin-5-yl)-8-azabicyclo[3.2.1]octan-8-yl)-2-hydroxypropan-1-one] | 100 to 1000 | 1 to 100 |
| CC(=O)c1c([C@H]2C[C@H]3CC[C@@H](C2)N3C(=O)CO)nc2c(-c3ccc(-c4ccccc4)nc3)cnn2c1N [Compound 1.1.9, 1-((1R,3r,5S)-3-(6-acetyl-7-amino-3-(6-phenylpyridin-3-yl)pyrazolo[1,5-a]pyrimidin-5-yl)-8-azabicyclo[3.2.1]octan-8-yl)-2-hydroxyethanone] | 100 to 1000 | 100 to 1000 |
| CC(=O)c1c([C@@H]2C[C@H]3CC[C@@H](C2)N3C(=O)Cc2nnn[nH]2)nc2c(-c3ccc(-c4ccccc4)nc3)cnn2c1N [Compound 1.1.20, 1-((1R,3s,5S)-3-(6-acetyl-7-amino-3-(6-phenylpyridin-3-yl)pyrazolo[1,5-a]pyrimidin-5-yl)-8-azabicyclo[3.2.1]octan-8-yl)-2-(1H-tetrazol-5-yl)ethanone] | 1000 to 10000 | 100 to 1000 |
| CC(=O)c1c(C2CC3CCC(C2)N3C(=O)c2c[nH]nn2)nc2c(-c3ccc(-c4ccccc4)nc3)cnn2c1N [Compound 1.1.21, 1-(5-((1R,3s,5S)-8-(1H-1,2,3-triazole-5-carbonyl)-8-azabicyclo[3.2.1]octan-3-yl)-7-amino-3-(6-phenylpyridin-3-yl)pyrazolo[1,5-a]pyrimidin-6-yl)ethanone] | 1 to 100 | 1 to 100 |
| CC(=O)c1c(C2CC3CCC(C2)N3C(=O)c2nnc(C)[nH]2)nc2c(-c3ccc(-c4ccccc4)nc3)cnn2c1N [Compound 1.1.22, 1-(7-amino-5-((1R,3s,5S)-8-(3-methyl-1H-1,2,4-triazole-5-carbonyl)-8-azabicyclo[3.2.1]octan-3-yl)-3-(6-phenylpyridin-3-yl)pyrazolo[1,5-a]pyrimidin-6-yl)ethanone] | 1 to 100 | 1 to 100 |
| CC(=O)c1c([C@@H]2C[C@H]3CC[C@@H](C2)N3C(=O)CNS(C)(=O)=O)nc2c(-c3ccc(-c4ccccc4)nc3)cnn2c1N [Compound 1.1.23, N-(2-((1R,3s,5S)-3-(6-acetyl-7-amino-3-(6-phenylpyridin-3-yl)pyrazolo[1,5-a]pyrimidin-5-yl)-8-azabicyclo[3.2.1]octan-8-yl)-2-oxoethyl)methanesulfonamide] | 100 to 1000 | 100 to 1000 |
